The source of these data is ChEMBL document CHEMBL1143808, “A generally applicable method for assessing the electrophilicity and reactivity of diverse nitrile-containing compounds” (Bioorg Med Chem Lett, 2007).

Common to all, as to assay type: ADME, Microsome
Data set [1] deals with Liver microsomes. Nature of the data set: Irreversible covalent binding in human liver microsomes at 100 uM after 30 mins. The conditions noted are these: 0.5 h. Background: Liver microsomes are a subcellular fraction often used to study metabolism.
Data set [2] has as its system Liver microsomes. The experiment in a line: Irreversible covalent binding in human liver microsomes at 10 uM after 1 hr.
The test system of data set [3] is Liver microsomes. Nature of the data set: Irreversible covalent binding in rat liver microsomes after 1 hr.

On to `[3H]C([3H])([3H])S(=O)(=O)c1ccc(-c2ccc([C@H](N[C@@H](CC(C)C)C(=O)NCC#N)C(F)(F)F)cc2)cc1`, for which the Activity turned out to be 0.06% in the data set with Liver microsomes [1] and 7 pmol/mg with Liver microsomes [2].

Regarding `COCCN1CCC(Cc2ccc(C(=O)NCc3cnc(C#N)nc3NCC(C)(C)C)cc2)CC1`, the results for the Activity in the data set on Liver microsomes [1] and in the data set with Liver microsomes [2] were 0.5% and 70 pmol/mg, respectively.

`N#CN1CCC(NS(=O)(=O)c2ccccc2)C1` (configuration not stated): the Activity with Liver microsomes [1] worked out at 3.6%; with Liver microsomes [2], 460 pmol/mg; in the data set on Liver microsomes [3], 550 pmol/mg.
